Laboratory results as given in ChEMBL document CHEMBL3885881, “DrugMatrix”.

Organism: Rattus norvegicus
Experiment: DrugMatrix - Regimen: Daily Repeat
Assay type: toxicity, organism-based, Sprague-Dawley
Set-up: regimen Daily Repeat, gender Male, age 6-8 weeks
Settings: in vivo, po, route oral GAVAGE, vehicle 100 % WATER; for ABSOLUTE BASOPHIL / ABSOLUTE EOSINOPHIL / ABSOLUTE LYMPHOCYTE / ABSOLUTE MONOCYTE / ABSOLUTE SEGMENTED NEUTROPHIL / BASOPHIL / EOSINOPHIL / ERYTHROCYTE COUNT / HEMATOCRIT / HEMOGLOBIN / LEUKOCYTE COUNT / LYMPHOCYTE / MEAN CORPUSCULAR HEMOGLOBIN / MEAN CORPUSCULAR HEMOGLOBIN CONCENTRATION / MEAN CORPUSCULAR VOLUME / MONOCYTE / NEUTROPHIL / NUCLEATED RED BLOOD CELLS / PLATELET COUNT: tissue Blood; for ALANINE AMINOTRANSFERASE / ALBUMIN / ALKALINE PHOSPHATASE / ASPARTATE AMINOTRANSFERASE / BLOOD UREA NITROGEN / CARBON DIOXIDE / CHLORIDE / CHOLESTEROL / CREATINE PHOSPHOKINASE / CREATININE / GLUCOSE / LACTATE DEHYDROGENASE / LIPASE / PHOSPHORUS / POTASSIUM / SODIUM / TOTAL BILIRUBIN / TOTAL PROTEIN / URIC ACID: tissue Plasma
[1] = 120 mg/kg, 120 h, dose level Low, time 5 day
[2] = 1695 mg/kg, 72 h, dose level High, time 3 day
[3] = 1695 mg/kg, 120 h, dose level High, time 5 day

SMILES: Nc1ccc(S(=O)(=O)Nc2ccnn2-c2ccccc2)cc1 [SULFAPHENAZOLE]
- ABSOLUTE BASOPHIL [1]: 0 CELLS/uL
- ABSOLUTE EOSINOPHIL [1]: 0 CELLS/uL
- ABSOLUTE LYMPHOCYTE [1]: 12168 CELLS/uL
- ABSOLUTE MONOCYTE [1]: 171.33 CELLS/uL
- ABSOLUTE SEGMENTED NEUTROPHIL [1]: 1260.67 CELLS/uL
- BASOPHIL [1]: 0%
- EOSINOPHIL [1]: 0%
- ERYTHROCYTE COUNT [1]: 5.32 x10E6/uL
- HEMATOCRIT [1]: 32.93%
- HEMOGLOBIN [1]: 13.2 G/DL
- LEUKOCYTE COUNT [1]: 13.6 x10E3/uL
- LYMPHOCYTE [1]: 88.67%
- MEAN CORPUSCULAR HEMOGLOBIN [1]: 24.8 pg
- MEAN CORPUSCULAR HEMOGLOBIN CONCENTRATION [1]: 40.07 G/DL
- MEAN CORPUSCULAR VOLUME [1]: 61.87 fL
- MONOCYTE [1]: 1.33%
- NEUTROPHIL [1]: 10%
- NUCLEATED RED BLOOD CELLS [1]: 0 /100WBC
- PLATELET COUNT [1]: 1135.33 x10E3/uL
- ALANINE AMINOTRANSFERASE [1]: 44 u/L
- ALBUMIN [1]: 4.37 G/DL
- ALKALINE PHOSPHATASE [1]: 314.33 u/L
- ASPARTATE AMINOTRANSFERASE [1]: 85.33 u/L
- BLOOD UREA NITROGEN [1]: 17.67 mg/dL
- CARBON DIOXIDE [1]: 25 mmol/L
- CHLORIDE [1]: 101.67 MEQ/L
- CHOLESTEROL [1]: 55.33 mg/dL
- CREATINE PHOSPHOKINASE [1]: 560.67 u/L
- CREATININE [1]: 0.19 mg/dL
- GLUCOSE [1]: 147.33 mg/dL
- LACTATE DEHYDROGENASE [1]: 243.67 u/L
- LIPASE [1]: 10.67 u/L
- PHOSPHORUS [1]: 11.43 mg/dL
- POTASSIUM [1]: 6.3 MEQ/L
- SODIUM [1]: 141.23 MEQ/L
- TOTAL BILIRUBIN [1]: 0.17 mg/dL
- TOTAL PROTEIN [1]: 5.93 G/DL
- URIC ACID [1]: 1.83 mg/dL
- ABSOLUTE BASOPHIL [2]: 0 CELLS/uL
- ABSOLUTE EOSINOPHIL [2]: 148.67 CELLS/uL
- ABSOLUTE LYMPHOCYTE [2]: 12946.33 CELLS/uL
- ABSOLUTE MONOCYTE [2]: 179 CELLS/uL
- ABSOLUTE SEGMENTED NEUTROPHIL [2]: 1226 CELLS/uL
- BASOPHIL [2]: 0%
- EOSINOPHIL [2]: 1%
- ERYTHROCYTE COUNT [2]: 6.24 x10E6/uL
- HEMATOCRIT [2]: 37.43%
- HEMOGLOBIN [2]: 14.4 G/DL
- LEUKOCYTE COUNT [2]: 14.5 x10E3/uL
- LYMPHOCYTE [2]: 89.33%
- MEAN CORPUSCULAR HEMOGLOBIN [2]: 23.1 pg
- MEAN CORPUSCULAR HEMOGLOBIN CONCENTRATION [2]: 38.5 G/DL
- MEAN CORPUSCULAR VOLUME [2]: 60.03 fL
- MONOCYTE [2]: 1.33%
- NEUTROPHIL [2]: 8.33%
- NUCLEATED RED BLOOD CELLS [2]: 0.33 /100WBC
- PLATELET COUNT [2]: 1221 x10E3/uL
- ALANINE AMINOTRANSFERASE [2]: 93.67 u/L
- ALBUMIN [2]: 4.27 G/DL
- ALKALINE PHOSPHATASE [2]: 470.33 u/L
- ASPARTATE AMINOTRANSFERASE [2]: 97.33 u/L
- BLOOD UREA NITROGEN [2]: 20 mg/dL
- CARBON DIOXIDE [2]: 28.67 mmol/L
- CHLORIDE [2]: 98 MEQ/L
- CHOLESTEROL [2]: 66 mg/dL
- CREATINE PHOSPHOKINASE [2]: 349 u/L
- CREATININE [2]: 0.24 mg/dL
- GLUCOSE [2]: 138 mg/dL
- LACTATE DEHYDROGENASE [2]: 231 u/L
- LIPASE [2]: 12 u/L
- PHOSPHORUS [2]: 11.17 mg/dL
- POTASSIUM [2]: 6.38 MEQ/L
- SODIUM [2]: 138.87 MEQ/L
- TOTAL BILIRUBIN [2]: 0.17 mg/dL
- TOTAL PROTEIN [2]: 5.9 G/DL
- URIC ACID [2]: 1.43 mg/dL
- ABSOLUTE BASOPHIL [3]: 0 CELLS/uL
- ABSOLUTE EOSINOPHIL [3]: 0 CELLS/uL
- ABSOLUTE LYMPHOCYTE [3]: 12966.33 CELLS/uL
- ABSOLUTE MONOCYTE [3]: 311 CELLS/uL
- ABSOLUTE SEGMENTED NEUTROPHIL [3]: 1656 CELLS/uL
- BASOPHIL [3]: 0%
- EOSINOPHIL [3]: 0%
- ERYTHROCYTE COUNT [3]: 5.99 x10E6/uL
- HEMATOCRIT [3]: 35.5%
- HEMOGLOBIN [3]: 13.53 G/DL
- LEUKOCYTE COUNT [3]: 14.93 x10E3/uL
- LYMPHOCYTE [3]: 86.67%
- MEAN CORPUSCULAR HEMOGLOBIN [3]: 22.57 pg
- MEAN CORPUSCULAR HEMOGLOBIN CONCENTRATION [3]: 38.1 G/DL
- MEAN CORPUSCULAR VOLUME [3]: 59.27 fL
- MONOCYTE [3]: 2%
- NEUTROPHIL [3]: 11.33%
- NUCLEATED RED BLOOD CELLS [3]: 0 /100WBC
- PLATELET COUNT [3]: 1318 x10E3/uL
- ALANINE AMINOTRANSFERASE [3]: 117.33 u/L
- ALBUMIN [3]: 4.47 G/DL
- ALKALINE PHOSPHATASE [3]: 435.33 u/L
- ASPARTATE AMINOTRANSFERASE [3]: 99.67 u/L
- BLOOD UREA NITROGEN [3]: 16.33 mg/dL
- CARBON DIOXIDE [3]: 25 mmol/L
- CHLORIDE [3]: 99 MEQ/L
- CHOLESTEROL [3]: 48 mg/dL
- CREATINE PHOSPHOKINASE [3]: 444.33 u/L
- CREATININE [3]: 0.22 mg/dL
- GLUCOSE [3]: 150.33 mg/dL
- LACTATE DEHYDROGENASE [3]: 121.33 u/L
- LIPASE [3]: 12 u/L
- PHOSPHORUS [3]: 11.27 mg/dL
- POTASSIUM [3]: 5.55 MEQ/L
- SODIUM [3]: 141.73 MEQ/L
- TOTAL BILIRUBIN [3]: 0.23 mg/dL
- TOTAL PROTEIN [3]: 5.87 G/DL
- URIC ACID [3]: 1.37 mg/dL
